Assay results: patent US20220395481A1, “BACTERIOSTATIC COMPOSITION, PREPARATION METHOD THEREFOR, AND USE THEREOF” (SHENZHEN EULIKAN BIOTECHNOLOGY CO., LTD, priority 2020, published 2022)
Where two headings read alike, the source gives them in different places.

Key:
[1] = test system: Candida albicans ATCC 10231; assay: Inhibition rate after 20 minutes of action, Appendix C of GB 15979-2002; format: cell-based
Text: “Inhibition rate” is the inhibition rate of bacteriostatic agents against Escherichia coli, Staphylococcus aureus, Candida albicans, or other microorganisms obtained by referring to the test methods and judgment criteria in Appendix C of GB 15979-2002 Hygienic Standard for Disposable Sanitary Products.
“Bacteriostatic effect” refers to the inhibition of bacteria, fungi, or other microorganisms by bacteriostatic agents.
The percentage concentration of each ingredient therein was the weight percentage concentration % (w/w), and the pH value of each group was 3.8.
The percentage concentration of each ingredient therein was the weight percentage concentration % (w/w), and the pH value of each group was 4.0.
According to the method described in Appendix C of GB 15979-2002 Hygienic Standard for Disposable Sanitary Products, aqueous solutions containing different ingredients were studied for their bacteriostatic effects of 20 minutes of action against Candida albicans ATCC 10231, the percentage concentration of each ingredient therein was the weight percentage concentration % (w/w), and the pH value of each group was 3.9. […]

[2] = test system: lactobacilli; details: cited from earlier work

O=C([O-])c1ccccc1.[Na+] [0.25% sodium benzoate, sodium benzoate]
Inhibition rate ([1]; Table 12, single ingredient solutions, pH 3.8, 20 minutes of action): 3.73%

N[C@@H](CCC(=O)O)C(=O)O [0.55% glutamic acid, glutamic acid]
influence on the bacteriostatic effect of the solution containing 0.14% malic acid, 1.46% adipic acid, 0.20% sodium benzoate, 1.67% propionic acid, and 0.40% phenethyl alcohol against Candida albicans ([1]; text on Table 26, pH 4.0, Group 1 compared to Group 2): did not affect the bacteriostatic effect

OCCc1ccccc1 [phenethyl alcohol, phenethyl alcohol (2-phenylethanol)]
growth of lactobacilli ([2]; concentration 0.40% (w/v)): not significantly inhibited
growth of lactobacilli ([2]; concentration 0.50% (w/v)): inhibited

CCC(=O)[O-].[Na+] [sodium propionate]
growth of lactobacilli ([2]; concentration 0.40% (w/v)): not significantly inhibited
growth of lactobacilli ([2]; concentration 0.50% (w/v)): not significantly inhibited
growth of lactobacilli ([2]; concentration 0.70% (w/v)): inhibited
